# Experimental data as given in US7081461B1, “Quinazoline compounds and pharmaceutical compositions containing them” (AstraZeneca AB, priority 1999, dated 2006).
# Assays:
# aurora2 kinase = target: T1, aurora2 kinase (Homo sapiens, UniProt O14965); assay: In vitro aurora2 kinase inhibition test; format: biochemical
# T1 construct: 6 His with spacer region and rTEV protease cleavage site (pFastBac HTc) (N); made in house; host or cells: Spodoptera frugiperda Sf21 insect cells (baculovirus, pFastBac HTc)
# T1 sequence (O14965 1-403): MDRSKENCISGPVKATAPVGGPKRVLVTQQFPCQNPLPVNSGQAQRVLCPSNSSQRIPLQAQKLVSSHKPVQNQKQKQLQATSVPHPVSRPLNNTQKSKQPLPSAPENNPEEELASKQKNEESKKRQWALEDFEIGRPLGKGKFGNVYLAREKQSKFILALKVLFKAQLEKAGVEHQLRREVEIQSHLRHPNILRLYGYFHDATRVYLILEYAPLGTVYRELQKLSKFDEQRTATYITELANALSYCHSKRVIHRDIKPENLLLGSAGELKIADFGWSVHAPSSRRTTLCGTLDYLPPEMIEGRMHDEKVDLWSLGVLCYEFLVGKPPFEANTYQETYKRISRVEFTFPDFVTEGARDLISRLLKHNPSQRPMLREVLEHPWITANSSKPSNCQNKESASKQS
# MCF-7 cells = assay: In vitro cell proliferation assay, Assay 1 (CyQUANT cell density); format: cell-based; settings: Homo sapiens, MCF7, 72 h, MCF-7, 3 days with compound, read-out: concentration giving 50% inhibition of cell proliferation
# Description: (b) In Vitro Cell Proliferation Assay
# These and other assays can be used to determine the ability of a test compound to inhibit the growth of adherent mammalian cell lines, for example the human tumour cell line MCF7.
# Assay 1: MCF-7 (ATCC HTB-22) or other adherent cells were typically seeded at 1×10^3 cells per well (excluding the peripheral wells) in DMEM (Sigma Aldrich) without phenol red, plus 10% foetal calf serum, 1% L-glutamine and 1% penicillin/streptomycin in 96 well tissue culture treated clear plates (Costar). The following day (day 1), the media was removed from a no treatment control plate and the plate stored at −80° C. […] The fluorescence of the wells was then measured using a fluorescence microplate reader (gain 70, 2 reads per well, 1 cycle with excitation 485 nm and emission 530 nm using a CytoFluor plate reader (PerSeptive Biosystems Inc.)). […]
# MCF7 cells = assay: In vitro cell cycle analysis assay (FACS, propidium iodide); format: cell-based, human; settings: MCF7, 24.8 μM, 24 hours
# Description: (c) In Vitro Cell Cycle Analysis Assay
# This assay determines the ability of a test compound to arrest cells in specific phases of the cell cycle. Many different mammalian cell lines could be used in this assay and MCF7 cells are included here as an example. MCF-7 cells were seeded at 3×10^5 cells per T25 flask (Costar) in 5 ml DMEM (no phenol red 10% FCS, 1% L-glutamine 1% penicillin/streptomycin). Flasks were then incubated overnight in a humidified 37° C. incubator with 5% CO2. The following day 1 ml of DMEM (no phenol red 10% FCS, 1% L-glutamine 1% penicillin/streptomycin) carrying the appropriate concentration of test compound solubilised in DMSO was added to the flask. A no compound control treatments was also included (0.5% DMSO). The cells were then incubated for a defined time (usually 24 hours) with compound. After this time the media was aspirated from the cells and they were washed with 5 ml of prewarmed (37° C.) sterile PBSA, then detached from the flask by brief incubation with trypsin and followed by resuspension in 10 ml of 1% Bovine Serum Albumin (BSA, Sigma-Aldrich Co.) in sterile PBSA. The samples were then centrifuged at 2200 rpm for 10 min. The supernatant was aspirated and the cell pellet was resuspended in 200%1 of 0.1% (w/v) Tris sodium citrate, 0.0564% (w/v) NaCl, 0.03% (v/v) Nonidet NP40, [pH 7.6]. Propridium Iodide (Sigma Aldrich Co.) was added to 40 μg/ml and RNAase A (Sigma Aldrich Co.) to 100 μg/ml. The cells were then incubated at 37° C. for 30 minutes. The samples were centrifuged at 2200 rpm for 10 min, the supernatant removed and the remaining pellet (nuclei) resuspended in 200%1 of sterile PBSA. […] The samples were then transferred to LPS tubes and DNA content per cell analysed by Fluorescence activated cell sorting (FACS) using a FACScan flow cytometer (Becton Dickinson). Typically 25000 events were counted and recorded using […]. Cell cycle distribution of the population was calculated using Modfit software (Verity Software) and expressed as percentage of cells in G0/G1, S and G2/M phases of the cell cycle.
compound,measurement,setting,value
COc1ccnc(COc2ccc(Nc3ncnc4cc(OC)c(OC)cc34)cc2C)c1 [Compound 43],IC50,aurora2 kinase,0.465 µM
same,IC50,MCF-7 cells,12.4 µM
same,% Cells in G1,MCF7 cells,37.29%
same,% Cells in G2/M,MCF7 cells,28.78%
same,% Cells in S,MCF7 cells,33.93%
